We go through 31 substances from patent US10005815B2, “Biologically cleavable tetrapeptide linking agents” (Arrowhead Madison Inc., priority 2015, dated 2018).

This assay deals with liver lysosomal (enzyme) extract. Kind of assay: Digestion assay with rat liver lysosomal extract. Format: biochemical. As to conditions: for Velocity, Sample / Velocity, Normalized: Table 3; for Velocity, Sample: FCitFP linker with various R5; for rate and time to completion of digestion, proline at A1 changed to alanine: 33 vs 30, 39 vs 23; for velocity of digestion, addition of phenylalanine: 54 vs 57, 56 vs 59. On the procedure:
Various amino acid combinations, tetrapeptides, were used to link various first moieties (R^5) and an AENA report group second compound (R^6) to form assay substrates (substrates). Cleavage rate of the peptides were evaluated by analysis of digestion of the substrates in the presence of rat lysosomal extract.
Reporting groups were coupled to the C-terminus of the peptide substrates as described above for UV-vis monitoring to explore the influence of amino acid sequence on kinetics of peptide degradation by HPLC. N-(2-aminoethyl)-4-nitroaniline (AENA) or N-(aminoethyl)-5-napthylamine-1-sulfonic acid (EDANS) were used as reporting groups for HPLC monitoring as neither absorptivity nor lambda maximum were affected for either after cleavage from the peptide. The N-terminus of each peptide substrate was modified with either methoxy polyethylene glycol (PEG12) or N-acetyl galactosamine (NAG(OR)3) (FIG. 1).
Proteolytic digestion experiments were carried out at a fixed substrate concentration (0.51 μmol) using liver lysosomal (enzyme) extract (0.45 μg/μL) in a 25 mM MES solution buffered to pH 5 containing 1% CHAPS and 1.8 mM DTT incubated at 37° C. Enzyme extract was activated in the presence of DTT for 15 minutes at 37° C. prior to addition of AENA labeled peptide substrates. At various time points, up to 26 h, 20 μL aliquots were removed and acidified to a pH of 3 with TFA. Analysis of fractions was performed using HPLC with a Aquasil C18 reverse-phase column (250×4.6, Thermofisher, Waltham, Mass.), monitored at 390 nm and 335 nm for AENA and EDANS respectively. Elution was performed with a gradient of acetonitrile and water buffered with 0.1% formic acid. Generation of unmodified reporter molecule was measured. To minimize freeze thaw cycles the lysosomal extract was dispensed into multiple aliquots prior to storage at −80° C. A new aliquot was employed for each study and used immediately upon thawing. Lysosomal extract was sourced from female Hans Wistar rats by differential density gradient centrifugation (Graham et al. 2000). Protein concentration of lysosomal extract was determined by standard BCA protein assay protocols. […]
Rate (also called velocity of degradation or velocity) was extrapolated during early linear turnover (Table 2). As used herein, rate is defined as the linear rate of reporting group generation at less than 50% completion (digestion rate was assumed to be linear at less than 50% completion). For substrates in which cleavage deviated from consecutive first order kinetics, the percent of reporting group liberated at the endpoint of digestion was used as a metric for comparison.

Setting [1] is: Table 4, dipeptide EDANS C-terminal modified substrates.
Setting [2] is: Table 4, dipeptide EDANS substrates, normalized with compound 60.
[3] abbreviates: AENA substrates, linear rate of reporter generation at <50% completion, pH 5, 37° C.
Where [4] appears, read: AENA substrates, normalized with compound 60 velocity (average 123.8 nmol/h).

As to NAG(OAc)3-ACA- AENA [Compound 43], the “% Released at Endpoint (21 hr)” value is 1.1%.

Consider NAG(OAc)3-ACitAA- AENA [Compound 35], for which the “% Released at Endpoint (21 hr)” value amounted to 49.8%.

As to “H2N-AP-PEG4-Glu(EDANS)-NH-(CH2)2-OH [Compound 55]”, the “Sample Velocity” value under setting [1] was found to be 125.7 nmol/h. Besides, the “Normalized Velocity” value under setting [2] was found to be 115.1 nmol/h.

For NAG(OH)3-FCitFP-AENA [Compound 22b], the “Velocity, Sample” value amounted to 223.7 nmol/h. For the same substance, under “normalized with compound 60”, the “Velocity, Normalized” value is 201.0 nmol/h.

As for “H2N-NP-PEG4-Glu(EDANS)-NH-(CH2)2-OH [Compound 52]”, the “Sample Velocity” value under setting [1] worked out at 156.5 nmol/h. Besides, the “Normalized Velocity” value under setting [2] worked out at 151.9 nmol/h.

Consider PEG12-ACitFP- AENA [Compound 31], for which the “Sample Velocity” value under setting [3] turned out to be 49.5 nmol/h. The “Normalized Velocity” value under setting [4] was 49.6 nmol/h. Also, the “% Released at Endpoint” value (endpoint at 23 hours) is reported as “*98.9%”.

As to “H2N-VP-PEG4-Glu(EDANS)-NH-(CH2)2-OH [Compound 50]”, under setting [1], the “Sample Velocity” value is 213.5 nmol/h. Further, the “Normalized Velocity” value under setting [2] was 195.5 nmol/h.

Consider “H2N-FP-PEG4-Glu(EDANS)-NH-(CH2)2-OH [Compound 48]”, for which, under setting [1], the “Sample Velocity” value was 448.5 nmol/h. Moreover, the “Normalized Velocity” value under setting [2] was found to be 383.0 nmol/h.

Turning to “H2N-L-PEG4-Glu(EDANS)-NH-(CH2)2-OH [Compound 57]”, the “Sample Velocity” value under setting [1] was 58.3 nmol/h. The “Normalized Velocity” value under setting [2] amounted to 53.3 nmol/h.

For NAG(OAc)3-FCitVP- AENA [Compound 26], the “% Released at Endpoint (21 hr)” value is on record as 97.8%. Also, the “Sample Velocity” value under setting [3] was 119.5 nmol/h. The “Normalized Velocity” value under setting [4] came out at 102.5 nmol/h.

For the substance NAG(OH)3-FCitAA- AENA [Compound 33], the “rate and time to completion of digestion, proline at A1 changed to alanine” value is “dramatic reduction in rate and time to completion of digestion”; the “% Released at Endpoint (21 hr)” value stood at 68.5%.

On to “H2N-FL-PEG4-Glu(EDANS)-NH-(CH2)2-OH [Compound 54]”, for which the “velocity of digestion, addition of phenylalanine” value is “substantial increase in the velocity of digestion”. In addition, under setting [1], the “Sample Velocity” value was determined as 155.0 nmol/h. The “Normalized Velocity” value under setting [2] was 132.4 nmol/h.

As for NAG(OAc)3-FCitFA- AENA [Compound 39], the “rate and time to completion of digestion, proline at A1 changed to alanine” value is “dramatic reduction in rate and time to completion of digestion”; the “% Released at Endpoint (21 hr)” value was determined as 40.5%.

For PEG12-FNFP- AENA [Compound 32b], the “Sample Velocity” value under setting [3] was 42.0 nmol/h. The “Normalized Velocity” value under setting [4] was found to be 38.6 nmol/h. Further, the “% Released at Endpoint” value (endpoint at 26 hours) is on record as “***99.3%”.

Turning to “H2N-LP-PEG4-Glu(EDANS)-NH-(CH2)2-OH [Compound 49]”, the “Sample Velocity” value under setting [1] came to 349.1 nmol/h. Further, the “Normalized Velocity” value under setting [2] was found to be 338.7 nmol/h.

For the substance PEG12-FKFP- AENA [Compound 24b], the “velocity, proline vs leucine at A1” value (23 vs 27, 24b vs 25b) is on record as “small increase in velocity”. The “Sample Velocity” value under setting [3] was 134.8 nmol/h. Further, under setting [4], the “Normalized Velocity” value turned out to be 123.9 nmol/h. In addition, under “endpoint at 26 hours”, the “% Released at Endpoint” value is on record as “***98.9%”.

As for NAG(OAc)3-VCitFP- AENA [Compound 28], under setting [3], the “Sample Velocity” value turned out to be 84.3 nmol/h. The “Normalized Velocity” value under setting [4] is 75.8 nmol/h. Also, the “% Released at Endpoint” value (endpoint at 23 hours) is given as “*99.4%”.

As to NAG(OAc)3-AAA- AENA [Compound 41], the “% Released at Endpoint (21 hr)” value was determined as 8.2%. The “Sample Velocity” value under setting [3] worked out at 1.6 nmol/h. Besides, the “Normalized Velocity” value under setting [4] is 1.6 nmol/h.

As for NAG(OAc)3-CitAAA- AENA [Compound 36], the “% Released at Endpoint” value (endpoint at 24 hours) is “**47.7%”.

On to “H2N-F(Nme)A-Glu(EDANS)-NH-(CH2)2-OH [Compound 51]”, for which the “Sample Velocity” value under setting [1] came out at 177.6 nmol/h. Also, under setting [2], the “Normalized Velocity” value came to 162.6 nmol/h.

Take PEG12-FDFP- AENA [Compound 34b]: under setting [3], the “Sample Velocity” value is 18.0 nmol/h. Further, the “Normalized Velocity” value under setting [4] amounted to 16.6 nmol/h. Besides, under “endpoint at 26 hours”, the “% Released at Endpoint” value is “***66.5%”.

PEG12-GFLG- AENA [Compound 38]: the “Sample Velocity” value under setting [3] worked out at 10.0 nmol/h. Under setting [4], the “Normalized Velocity” value was 9.7 nmol/h. Also, under “endpoint at 24 hours”, the “% Released at Endpoint” value is on record as “**47.8%”.

Regarding PEG12-FCitF(Nme)A- AENA [Compound 29], the “rate and completion of digestion, N-methylation at A1” value (29 vs 39) is “faster rate and faster completion of digestion”. For the same substance, the “Sample Velocity” value under setting [3] turned out to be 62.5 nmol/h. In addition, the “Normalized Velocity” value under setting [4] is 62.6 nmol/h. Further, the “% Released at Endpoint” value (endpoint at 23 hours) is “*97.3%”.

Turning to NAG(OAc)3-FCitFP-AENA [Compound 22a], the “Velocity, Sample” value was determined as 244.9 nmol/h. In addition, the “rate of proteolytic digestion, influence of R5” value (22a vs 23, 22a vs 22b) was “essentially equivalent in terms of rate of proteolytic digestion”. The “Velocity, Normalized” value (normalized with compound 60) came out at 210.5 nmol/h.

On to “H2N-A-PEG4-Glu(EDANS)-NH-(CH2)2-OH [Compound 59]”, for which, under setting [1], the “Sample Velocity” value is 7.9 nmol/h. Moreover, under setting [2], the “Normalized Velocity” value amounted to 7.2 nmol/h.

Consider “H2N-SP-PEG4-Glu(EDANS)-NH-(CH2)2-OH [Compound 53]”, for which, under setting [1], the “Sample Velocity” value came to 145.0 nmol/h. The “Normalized Velocity” value under setting [2] was 140.7 nmol/h.

For the substance PEG12-FKFL- AENA [Compound 25b], the “Sample Velocity” value under setting [3] worked out at 117.0 nmol/h. In addition, the “Normalized Velocity” value under setting [4] is 117.4 nmol/h. For the same substance, the “% Released at Endpoint” value (endpoint at 24 hours) is listed as “**99.8%”.

As to NAG(OAc)3-CitAA- AENA [Compound 40], the “% Released at Endpoint (21 hr)” value was 15.6%. Also, the “Sample Velocity” value under setting [3] was 3.7 nmol/h. The “Normalized Velocity” value under setting [4] was found to be 3.9 nmol/h.

Consider “H2N-GP-PEG4-Glu(EDANS)-NH-(CH2)2-OH [Compound 58]”, for which, under setting [1], the “Sample Velocity” value was 14.4 nmol/h. Besides, under setting [2], the “Normalized Velocity” value came to 13.9 nmol/h.

Regarding PEG12-FCitFL- AENA [Compound 27], under setting [3], the “Sample Velocity” value was determined as 94.5 nmol/h. For the same substance, the “Normalized Velocity” value under setting [4] was determined as 94.7 nmol/h. For the same substance, the “% Released at Endpoint” value (endpoint at 24 hours) was “**99.7%”.

“H2N-FA-PEG4-Glu(EDANS)-NH-(CH2)2-OH [Compound 56]”: the “velocity of digestion, addition of phenylalanine” value is “substantial increase in the velocity of digestion”. Moreover, under setting [1], the “Sample Velocity” value came out at 61.3 nmol/h. Moreover, the “Normalized Velocity” value under setting [2] is 56.1 nmol/h.
